Test results as given in patent US20260327195A1, “2-STYRYLBENZOTHIAZOLE DERIVATIVES AS ALPHA-SYNUCLEIN BINDING COMPOUNDS” (Eberhard Karls Universität Tübingen Medizinische Fakultät, priority 2023, published 2026).
Where “and” joins values, the source holds several entries; their conditions need not be identical. Equal values may be shown once. Read-outs that look alike come from different tables or passages of the source.

Experiments:
[1] = target: T1, human recombinant αSYN fibrils (Homo sapiens, UniProt P37840); assay: [3H]PiB competition binding assay on αSYN fibrils; conditions: for Ki: competition against 6 nM [3H]PiB, read-out: Ki (mean ± SEM)
Method: (§1) Concentrations of αSYN and Aβ1-42 fibrils were as described above.
Plates were incubated on a shaker (MaxQ 6000, Thermo Fisher Scientific Inc., Marietta, OH, USA) at 50 rpm for 2 hours at 37° C., covered by removable sealing tapes (PerkinElmer, Waltham, MA, USA). […] Data points were fitted using non-linear regression analysis in GraphPad Prism (GraphPad Software, Inc., Version 8.4.0, La Jolla, USA).

[2] = target: T2, synthetic human Aβ1-42 fibrils (Homo sapiens, UniProt P05067); assay: [3H]PiB competition binding assay on Aβ fibrils; conditions: result in words; FIG. 4b, 6b
T2 construct: chain cut from APP
Excerpt: The method for Aβ1-42 fibrils generation was adapted from Bagchi, D. P. et al., Binding of the radioligand SIL23 to alpha-synuclein fibrils in Parkinson disease brain tissue establishes feasibility and screening approaches for developing a Parkinson disease imaging agent; PLoS One 2013, 8 (2), e55031, and described in Kuebler, L. et al., [^11C]MODAG-001-towards a PET tracer targeting α-synuclein aggregates; European Journal of Nuclear Medicine and Molecular Imaging 2020, 48, 1759-1772. Synthetic lyophilized human Aβ1-42 peptide (5 mg) with >90% purity (EMC Microcollections, Tuebingen, Germany) was dissolved in DMSO (221.5 μL), followed by the addition of deionized water (4.1 mL) and 1 M Tris-HCl (111 μL, pH 7.6) to reach a final monomeric concentration of 250 μM. Aggregation was induced by incubation in Eppendorf Thermomixer at 37° C. with shaking at 800 rpm for 72 hours. […]
Plates were incubated on a shaker (MaxQ 6000, Thermo Fisher Scientific Inc., Marietta, OH, USA) at 50 rpm for 2 hours at 37° C., covered by removable sealing tapes (PerkinElmer, Waltham, MA, USA). Vacuum filtration and read-out were performed as disclosed in Kuebler, L. et al., [^11C]MODAG-001-towards a PET tracer targeting α-synuclein aggregates; European Journal of Nuclear Medicine and Molecular Imaging 2020, 48, 1759-1772. […]

[3] = target: T1, human recombinant αSYN fibrils; assay: [3H]MODAG-001 competition binding assay on αSYN fibrils; conditions: for competition with [3H]MODAG-001: result in words
Method: as §1
Plates were incubated on a shaker (MaxQ 6000, Thermo Fisher Scientific Inc., Marietta, OH, USA) at 50 rpm for 2 hours at 37° C., covered by removable sealing tapes (PerkinElmer, Waltham, MA, USA). Vacuum filtration and read-out were performed as disclosed in Kuebler, L. et al., [^11C]MODAG-001-towards a PET tracer targeting α-synuclein aggregates; European Journal of Nuclear Medicine and Molecular Imaging 2020, 48, 1759-1772. […] Data points were fitted using non-linear regression analysis in GraphPad Prism (GraphPad Software, Inc., Version 8.4.0, La Jolla, USA).

[4] = target: αSYN pathology in PD human brain slices (Homo sapiens, UniProt P37840); assay: In vitro autoradiography on PD human brain slices (frontal cortex); type: binding; conditions: 10 nM tracer; NSB with 10 μM non-radioactive compound
Method: (§2) Post-mortem human brain slices (10 μm thickness) were obtained from and the subject cases were analyzed by the Neurobiobank München (NBM, Munich, Germany), where tissues were collected on the basis of written informed consent according to the guidelines of the ethics committee of the Ludwig-Maximilians-University Munich, Germany (#345-13). The use of brain tissue samples in this study was approved by the ethics committee of the Faculty of Medicine at the University of Tuebingen (Ethics approval number: 813/2018BO2). Table 1 summarizes the information of the subjects from which samples were obtained and used in the experiment.
For autoradiography, brain slices were thawed for one hour before pre-incubation in BSA buffer for 25 minutes at room temperature. To determine total binding (TB), brain slices were incubated with the tracer (10 nM [^18F]PFSB, 10 nM [^18F]MFSB). […]
Quantitative data analysis was performed by drawing four regions of interest (ROIs) in relevant areas of the slice and one ROI next to it for background subtraction (ImageJ 1.8.0_172, National Institute of Health, Bethesda, Maryland, USA) (Schneider, C. A. et al., NIH Image to ImageJ: 25 years of image analysis; Nat Methods 2012, 9 (7), 671-5). […] The SB disease/SB control ratio was calculated by dividing by the SB in diseased tissues with the respective SB in control tissues.

[5] = target: T3, Aβ plaques in AD human brain slices (Homo sapiens, UniProt P05067); assay: In vitro autoradiography on AD human brain slices (frontal cortex); type: binding
T3 construct: mainly Abeta40/42 cut from APP) in post-mortem AD frontal cortex slices
Method: as §2
(§3) For autoradiography, brain slices were thawed for one hour before pre-incubation in BSA buffer for 25 minutes at room temperature. To determine total binding (TB), brain slices were incubated with the tracer (10 nM [^18F]PFSB, 10 nM [^18F]MFSB). Incubation of consecutive slices with the correspondent non-radioactive compounds (10 μM PFSB, […]) was performed to determine non-specific binding (NSB). The non-radioactive compounds were prepared by dissolving in DMSO to 10 mM, which yielded DMSO concentration of ≤0.1% in the final solution. Incubation was carried out for one hour at room temperature with subsequent washing in cold BSA buffer (three times for ten minutes) followed by three dipping in cold deionized water. After drying under UV lamps, brain slices were exposed to a storage phosphor screen (Molecular Dynamics, Caesarea, Israel) for 18 hours, which was then scanned in a phosphor imager (STORM 840, Molecular dynamics, Sunnyvale, CA, USA).
(§4) Quantitative data analysis was performed by drawing four regions of interest (ROIs) in relevant areas of the slice and one ROI next to it for background subtraction (ImageJ 1.8.0_172, National Institute of Health, Bethesda, Maryland, USA) (Schneider, C. A. et al., NIH Image to ImageJ: 25 years of image analysis; Nat Methods 2012, 9 (7), 671-5). Specific binding (SB) is obtained by subtracting NSB from TB. The SB disease/SB control ratio was calculated by dividing by the SB in diseased tissues with the respective SB in control tissues.

[6] = target: αSYN pathology in MSA human brain slices (Homo sapiens, UniProt P37840); assay: In vitro autoradiography on MSA human brain slices (cerebellum); type: binding
Method: as §2, §3, §4

[7] = methylated compounds, two data points
[8] = non-methylated compounds, two data points (three for 9a, 14a, 15a, 17a, 18a; single for 12a)
[9] = 10 nM tracer, NSB with 10 μM non-radioactive compound

T3 sequence (P05067 672-713 limits assumed): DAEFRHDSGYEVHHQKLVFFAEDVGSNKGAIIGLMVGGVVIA
T2 sequence (P05067 672-713): as the sequence (P05067 672-713 limits assumed) above

## CN(C)c1ccc(C=Cc2sc3ccccc3[n+]2C)cc1 [Compound 19b, 2-(4-(dimethylamino)styryl)-3-methylbenzo[d]thiazol-3-ium Iodide]
[1]; [7]
  Ki: > 400 nM

## CN1CCN(c2ccc(C=Cc3sc4ccccc4[n+]3C)cc2)CC1 [RB2, 3-methyl-2-(4-(4-methylpiperazin-1-yl)styryl)benzo[d]thiazol-3-ium Iodide, reference compound]
[1]; [7]
  Ki: > 400 nM

## Fc1ccc2nc(C=CC=Cc3ccc(N4CCCC4)cc3)sc2c1 [Compound 44, 6-fluoro-2-(4-(4-(pyrrolidin-1-yl)phenyl)buta-1,3-dien-1-yl)benzo[d]thiazole]
[2]
  competition with [3H]PiB / binding to Aβ fibrils: the binding to Aβ remained low

## CN(C)c1ccc(C=Cc2nc3ccccc3s2)cc1 [Compound 19a, 4-(2-(benzo[d]thiazol-2-yl)vinyl)-N,N-dimethylaniline]
[1]; [8]
  Ki: > 400 nM

## COc1cccc2nc(C=Cc3ccc(N4CCCCC4)cc3)sc12 [Compound 11a, 7-methoxy-2-(4-(piperidin-1-yl)styryl)benzo[d]thiazole]
[1]; [8]
  Ki: > 400 nM

## C[n+]1c(C=Cc2ccc(N3CCSCC3)cc2)sc2ccccc21 [Compound 16b, 3-methyl-2-(4-thiomorpholinostyryl)benzo[d]thiazol-3-ium Iodide]
[1]; [7]
  Ki: > 400 nM

## C[n+]1c(C=Cc2ccc(N3CCCCC3)cc2)sc2c(F)cccc21 [Compound 12b, 7-fluoro-3-methyl-2-(4-(piperidin-1-yl)styryl)benzo[d]thiazol-3-ium Iodide]
[1]; [7]
  Ki: > 400 nM

## C[n+]1c(C=Cc2ccc(N3CCCCC3)cc2)sc2cccc(F)c21 [Compound 3b, 4-fluoro-3-methyl-2-(4-(piperidin-1-yl)styryl)benzo[d]thiazol-3-ium 4-nitrobenzenesulfonate]
[1]; [7]
  Ki: > 400 nM

## Cc1cccc2nc(C=Cc3ccc(N4CCCCC4)cc3)sc12 [Compound 10a, 7-methyl-2-(4-(piperidin-1-yl)styryl)benzo[d]thiazole]
[1]; [8]
  Ki: > 400 nM

## Fc1ccc2nc(C=Cc3ccc(N4CCOCC4)cc3)sc2c1 [Compound 45, 4-(4-(2-(6-fluorobenzo[d]thiazol-2-yl)vinyl)phenyl)morpholine]
[3]; [3H]MODAG-001 competition, versus PFSB
  fold lower Ki of MFSB than PFSB: 4.6 fold
[3]
  competition with [3H]MODAG-001: moderate to good competition
[1]; [3H]PiB competition, versus PFSB
  improvement of affinity (Ki) of MFSB compared to PFSB: 2.5 factor

## C[n+]1c(-c2ccc(N3CCCCC3)cc2)sc2ccccc21 [Compound 13b, 3-methyl-2-(4-(piperidin-1-yl)phenyl)benzo[d]thiazol-3-ium]
[1]; [7]
  Ki: > 400 nM

## [18F]c1ccc2nc(/C=C/c3ccc(N4CCCCC4)cc3)sc2c1 [[^18F]PFSB]
[4]
  SB disease/SB control, PD/frontal cortex ctrl: 1.51
[5]; [9]
  SB disease/SB control, AD/frontal cortex ctrl: 1.06 and 1.03
[5]; result in words, FIG. 12
  binding in AD brain regions with Aβ plaques / AD/frontal cortex SB ratio in words: no increased binding
[6]; [9]
  SB disease/SB control, MSA1/cerebellum ctrl: 3.73
  SB disease/SB control, MSA2/cerebellum ctrl: 4.15
[6]; MSA patients, same brain area, 10 nM tracer
  specific binding ratio of MSA brain slices compared to the control: 3.94±0.30
[6]; autoradiography, result in words, FIG. 12
  selectivity towards αSYN over Aβ: selectivity towards αSYN over Aβ
[6]; result in words, FIG. 12
  affinity to αSYN pathology: displayed affinity to αSYN pathology

## C(=Cc1nc2ccccc2s1)c1ccc(N2CCOCC2)cc1 [Compound 15a, 4-(4-(2-(benzo[d]thiazol-2-yl)vinyl)phenyl)morpholine]
[1]; result in words
  affinity relative to N-piperidine analog 20: comparable affinity

## Fc1ccc2nc(C=CC=Cc3ccc(N4CCCCC4)cc3)sc2c1 [Compound 43, 6-fluoro-2-(4-(4-(piperidin-1-yl)phenyl)buta-1,3-dien-1-yl)benzo[d]thiazole]
[2]
  competition with [3H]PiB / binding to Aβ fibrils: the binding to Aβ remained low

## COc1cccc2sc(C=Cc3ccc(N4CCCCC4)cc3)nc12 [Compound 2a, 4-methoxy-2-(4-(piperidin-1-yl)styryl)benzo[d]thiazole]
[1]; [8]
  Ki: > 400 nM

## C[n+]1c(C=Cc2ccc(N3CCOCC3)cc2)sc2ccccc21 [Compound 15b, 3-methyl-2-(4-morpholinostyryl)benzo[d]thiazol-3-ium Iodide]
[1]; [7]
  Ki: > 400 nM

## C[n+]1c(C=Cc2ccc(N3CCC(F)CC3)cc2)sc2ccccc21 [Compound 18b, 2-(4-(4-fluoropiperidin-1-yl)styryl)-3-methylbenzo[d]thiazol-3-ium Iodide]
[1]; [7]
  Ki: > 400 nM

## Fc1ccc2nc(C=Cc3ccc(N4CCCCC4)cc3)sc2c1 (mixture of isomers) [Compound 9a, 6-fluoro-2-(4-(piperidin-1-yl)styryl)benzo[d]thiazole]
[3]
  competition with [3H]MODAG-001: moderate to good competition
